How the values were obtained:
[1] = Inhibition of HIV1 LAI reverse transcriptase infected in human MT4 cells assessed as protection against virus-induced cytopathic effect by MTT assay
[2] = Inhibition of HIV1 reverse transcriptase L100I mutant infected in human MT4 cells assessed as protection against virus-induced cytopathic effect by MTT assay
[3] = Inhibition of HIV1 reverse transcriptase Y188L mutant infected in human MT4 cells assessed as protection against virus-induced cytopathic effect by MTT assay
[4] = Inhibition of HIV1 reverse transcriptase K103N mutant infected in human MT4 cells assessed as protection against virus-induced cytopathic effect by MTT assay
[5] = Inhibition of HIV1 reverse transcriptase Y181C mutant infected in human MT4 cells assessed as protection against virus-induced cytopathic effect by MTT assay
[6] = Inhibition of HIV1 reverse transcriptase L100I/K103N double mutant infected in human MT4 cells assessed as protection against virus-induced cytopathic effect by MTT assay
[7] = Inhibition of HIV1 reverse transcriptase K103N/Y188C double mutant infected in human MT4 cells assessed as protection against virus-induced cytopathic effect by MTT assay
[8] = Inhibition of HIV1 3B reverse transcriptase infected in human MT2 cells assessed as protection against virus-induced cytopathic effect by MTT assay
[9] = Inhibition of HIV1 reverse transcriptase Y181C mutant infected in human MT2 cells assessed as protection against virus-induced cytopathic effect by MTT assay
[10] = Inhibition of HIV1 reverse transcriptase K103N/Y181C double mutant infected in human MT2 cells assessed as protection against virus-induced cytopathic effect by MTT assay
[11] = target: recombinant HIV1 reverse transcriptase Y188L mutant; assay: Inhibition of recombinant HIV1 reverse transcriptase Y188L mutant
[12] = Inhibition of wild-type HIV1 3B reverse transcriptase infected in human MT4 cells harboring GFP by scanning microscopic analysis
[13] = Inhibition of HIV1 reverse transcriptase Y181C mutant infected in human MT4 cells harboring GFP by scanning microscopic analysis
[14] = Inhibition of HIV1 reverse transcriptase K103N mutant infected in human MT4 cells harboring GFP by scanning microscopic analysis
[15] = Inhibition of HIV1 reverse transcriptase K103N/Y181C double mutant infected in human MT4 cells harboring GFP by scanning microscopic analysis
Reverse transcriptase = Reverse transcriptase (Human immunodeficiency virus 1, UniProt Q9WKE8); assay: Inhibition of CXCR4 tropic HIV1 3B reverse transcriptase infected in human TZM-bl cells
[16] = Inhibition of CCR5 tropic HIV1 VB59 reverse transcriptase infected in human TZM-bl cells
[17] = Inhibition of CCR5 tropic HIV1 ADA5 reverse transcriptase infected in human TZM-bl cells
[18] = Inhibition of CXCR4 tropic HIV1 UG070 reverse transcriptase infected in human TZM-bl cells
[19] = Inhibition of wild-type HIV1 3B reverse transcriptase infected in human MT4 cells assessed as protection against virus-induced cytopathic effect measured after 4 days by MTT assay
[20] = Inhibition of HIV1 reverse transcriptase K103N/Y188C double mutant infected in human MT4 cells assessed as protection against virus-induced cytopathic effect measured after 4 days by MTT assay
[21] = Inhibition of wild-type HIV1 3B reverse transcriptase infected in human MT4 cells assessed as protection against virus-induced cytopathic effect measured 5 days post infection by MTT assay
[22] = Inhibition of HIV1 reverse transcriptase K103N mutant infected in human MT4 cells assessed as protection against virus-induced cytopathic effect measured 5 days post infection by MTT assay
[23] = Inhibition of HIV1 reverse transcriptase E138K mutant infected in human MT4 cells assessed as protection against virus-induced cytopathic effect measured 5 days post infection by MTT assay
[24] = Inhibition of HIV1 reverse transcriptase K103N/Y188C double mutant infected in human MT4 cells assessed as protection against virus-induced cytopathic effect measured 5 days post infection by MTT assay
[25] = Inhibition of wild-type HIV1 3B reverse transcriptase infected in human MT4 cells assessed as protection against virus-induced cytopathic effect
[26] = Inhibition of HIV1 RES056 reverse transcriptase K103N/Y181C double mutant infected in human MT4 cells assessed as protection against virus-induced cytopathic effect

Row | Compound | IC50 [1] | IC50 [2] | IC50 [3] | IC50 [4] | IC50 [5] | IC50 [6] | IC50 [7] | other results
1 | N#Cc1ccc(Nc2cc(N)nc(Cc3c(Cl)cccc3Cl)n2)cc1 | 452 nM | > 100000 nM | > 100000 nM | > 100000 nM | > 100000 nM | – | – | –
2 | Cc1cc(Br)cc(C)c1Sc1ccnc(Nc2ccc(C#N)cc2)n1 | 5.7 nM | 174 nM | 44 nM | 39 nM | 68 nM | 3890 nM | 354 nM | –
3 | Cc1cc(C#N)cc(C)c1Nc1nc(Nc2ccc(C#N)cc2)ncc1C#N | 0.5 nM | 91 nM | 8.6 nM | 2.6 nM | 76 nM | 312 nM | 181 nM | –
4 | Cc1cc(C#N)cc(C)c1Oc1nc(Nc2ccc(C#N)cc2)ncc1N | 1 nM | 16 nM | 5.7 nM | 1.3 nM | 9.3 nM | 282 nM | 14 nM | –
5 | N#C/C=C/c1cc(F)c(Nc2nc(NCCCN3CCOCC3)nc(Nc3ccc(C#N)cc3)n2)c(F)c1 | – | – | – | – | – | – | – | EC50 [8]: 5.7 nM; EC50 [9]: 75 nM; EC50 [10]: 16 nM
6 | N#Cc1ccc(Nc2nc(N)cc(Cc3c(Cl)cccc3Cl)n2)cc1 | 1 nM | 299 nM | 71 nM | 12 nM | 175 nM | – | – | –
7 | C=Cc1cnc(Nc2ccc(C#N)cc2)nc1Nc1c(C)cc(C)cc1C | 2.5 nM | 35 nM | 29 nM | 5.8 nM | 36 nM | > 100000 nM | 106 nM | –
8 | CC(=O)Nc1cnc(Nc2ccc(C#N)cc2)nc1Oc1c(C)cc(C#N)cc1C | – | – | – | 3.3 nM | – | 205 nM | 30 nM | –
9 | Cc1cc(C#N)cc(C)c1Nc1nc(Nc2ccc(C#N)cc2)ncc1Br | 0.4 nM | 7 nM | 3.3 nM | 0.4 nM | 9.6 nM | 37 nM | 32 nM | –
10 | N#Cc1ccc(Nc2nc(N)nc(Cc3c(Cl)cccc3Cl)n2)cc1 | 6 nM | 398 nM | 316 nM | 40 nM | 200 nM | – | – | –
11 | Cc1cc(C)c(Nc2ccnc(Nc3ccc(C(N)=O)cc3)n2)c(C)c1 | – | – | – | – | – | – | – | IC50 [11]: < 10000 nM
12 | C#Cc1cnc(Nc2ccc(C#N)cc2)nc1Nc1c(C)cc(C)cc1C | – | – | – | 6.2 nM | – | 71 nM | 42 nM | –
13 | Cc1cc(C#N)cc(C)c1Nc1nc(Nc2ccc(C#N)cc2)ncc1Cl | 1.2 nM | 5.2 nM | 4.7 nM | 0.9 nM | 14 nM | 144 nM | 69 nM | –
14 | N#C/C=C/c1ccc(Nc2nc(Nc3ccc(C#N)cc3)ncc2C(=O)NCCCN2CCCC2)cc1 | – | – | – | – | – | – | – | EC50 [12]: 0.794 nM; EC50 [13]: 20 nM; EC50 [14]: 1 nM; EC50 [15]: 16 nM
15 | N#C/C=C/c1ccc(Nc2cc(NCCc3ccc(S(N)(=O)=O)cc3)nc(Nc3ccc(C#N)cc3)n2)cc1 | – | – | – | – | – | – | – | EC50 [12]: 16 nM; EC50 [13]: 98 nM; EC50 [14]: 389 nM; EC50 [15]: 91 nM
16 | Cc1cc(C)c(Nc2cc(OCCCN3CCOCC3)nc(Nc3ccc(C#N)cc3)n2)c(C)c1 | – | – | – | – | – | – | – | EC50 [9]: 480 nM; EC50 [10]: 38 nM
17 | Cc1cc(C)c(Nc2nc(N)nc(Nc3ccc(C#N)nc3)n2)c(C)c1 | – | – | – | – | – | – | – | IC50 (Reverse transcriptase): 0.131 nM; IC50 [16]: 0.183 nM; IC50 [17]: 0.183 nM; IC50 [18]: 0.784 nM

Row | Compound | IC50 [1] | IC50 [2] | IC50 [3] | IC50 [4] | IC50 [5] | IC50 [6] | IC50 [7] | other results
18 | N#Cc1ccc(Nc2nccc(Oc3ccc4ccccc4c3Br)n2)cc1 | – | – | – | – | – | – | – | EC50 [19]: 2.4 nM; EC50 [20]: 6570 nM
19 | N#Cc1ccc(Nc2nccc(Oc3ccc4cc(C#N)ccc4c3Br)n2)cc1 | – | – | – | – | – | – | – | EC50 [19]: 2 nM; EC50 [20]: 240 nM
20 | Cc1cnc(Nc2ccc(C#N)cc2)nc1Nc1c(C)cc(C#N)cc1C | 0.8 nM | 16 nM | 16 nM | 1.7 nM | 12 nM | > 10000 nM | 162 nM | –
21 | Cc1cc(C#N)cc(C)c1Oc1ccnc(Nc2ccc(C#N)cc2)n1 | 1.1 nM | 73 nM | 19 nM | 2.7 nM | 37 nM | 798 nM | 94 nM | –
22 | N#Cc1ccc(Nc2cc(Cc3c(Cl)cccc3Cl)nc(N)n2)cc1 | 10 nM | 96600 nM | > 100000 nM | 33300 nM | > 100000 nM | – | – | –
23 | Cc1cc(C#N)cc(C)c1Nc1ccnc(Nc2ccc(C#N)cc2)n1 | 0.4 nM | 34 nM | 7.8 nM | 1.9 nM | 7.1 nM | 1090 nM | 37 nM | –
24 | CN(C)CCNC(=O)c1cnc(Nc2ccc(C#N)cc2)nc1Nc1ccc(/C=C/C#N)cc1 | – | – | – | – | – | – | – | EC50 [12]: 0.794 nM; EC50 [13]: 16 nM; EC50 [14]: 0.631 nM; EC50 [15]: 20 nM
25 | Cc1cc(C)c(Nc2nc(Cl)nc(Nc3ccc(C#N)nc3)n2)c(C)c1 | – | – | – | – | – | – | – | IC50 (Reverse transcriptase): 0.124 nM; IC50 [16]: 0.497 nM; IC50 [17]: 0.273 nM; IC50 [18]: 1.12 nM
26 | Cc1cc(C#Cc2cccnc2)cc(C)c1Oc1ccnc(Nc2ccc(C#N)cc2)n1 | – | – | – | – | – | – | – | EC50 [21]: 3 nM; EC50 [22]: 10 nM; EC50 [23]: 22 nM; EC50 [24]: 935 nM
27 | Cc1cc(C#N)cc(C)c1Oc1nc(Nc2ccc(C#N)cc2)ncc1[N+](=O)[O-] | 18 nM | 121 nM | 782 nM | 10 nM | 304 nM | > 10000 nM | 194 nM | –
28 | N#C/C=C/c1ccc(Nc2cc(NCCCN3CCOCC3)nc(Nc3ccc(C#N)cc3)n2)cc1 | – | – | – | – | – | – | – | EC50 [12]: 20 nM; EC50 [13]: 87 nM; EC50 [14]: 219 nM; EC50 [15]: 98 nM
29 | Cc1cc(/C=C/C#N)cc(C)c1Nc1nc(Nc2ccc(C#N)cc2)nc(OCCCN2CCOCC2)n1 | – | – | – | – | – | – | – | EC50 [9]: 12 nM; EC50 [10]: 1.3 nM
30 | CCN(c1nc(Nc2ccc(C#N)cc2)nc(Oc2c(C)cc(C)cc2C)n1)N1CCOCC1 | – | – | – | – | – | – | – | EC50 [21]: 7.8 nM; EC50 [24]: 650 nM
31 | Cc1cc(C(C#N)c2ccccc2F)nc(Nc2ccc(C#N)cc2)n1 (configuration not stated) | – | – | – | – | – | – | – | EC50 [25]: 1.8 nM; EC50 [26]: > 217 nM
32 | Cc1cc(C)c(Nc2nc(Nc3ccc(C#N)cc3)ncc2-c2ccccc2)c(C)c1 | 24 nM | – | – | – | – | – | – | –
33 | Cc1cc(C#CCCO)cc(C)c1Oc1ccnc(Nc2ccc(C#N)cc2)n1 | – | – | – | – | – | – | – | EC50 [21]: 3 nM

From BindingDB's records for doi:10.1016/j.ejmech.2018.09.013 (Wuhan Institute of Technology, 2018)
